Laboratory results reported in patent US20090312294A1, “Method and Agent for Reducing Weight, Accelerating Lipid Catabolism, and/or Restricting Calories” (priority 2006, published 2009).
Where “and” joins values, the source holds several entries; their conditions need not be identical. Identical values can stand only once.

Assay: Clinical study on the action of the formulations for weight reduction
Format: in vivo, human
Conditions: body weight per patient; postmenopausal women aged 52-59; 100 mg chrysin daily after lunch for 5 days; each table row is one patient
Experimental: Eight women between 52 and 59 in age who were hormonally in postmenopause and despite an activity program and targeted nutrition observed no change in weight, took 100 mg of chrysin for 5 days. This dose is under the dosages of any formulations which are offered as food supplements. After a further 5 days, the patients were advised, in order to excite the conversion of peripheral […], to take additionally 100 mg of cholic acid as supplement. Intake proceeded in each case at midday after lunch.

SMILES: O=c1cc(-c2ccccc2)oc2cc(O)cc(O)c12 [chrysin]
- kg after 5 days of 100 mg of chrysin: 73.5 kg and 69.5 kg (2×) and 65 kg and 71 kg and 78 kg and 70.2 kg and 67 kg
